The structures appear in SMILES notation.

The source of these data is ChEMBL document CHEMBL1138675 (J Med Chem, 2004).

Assay [1] concerns the target T1, Melatonin receptor type 1B (Homo sapiens, UniProt P49286).
T1 sequence (P49286 whole entry): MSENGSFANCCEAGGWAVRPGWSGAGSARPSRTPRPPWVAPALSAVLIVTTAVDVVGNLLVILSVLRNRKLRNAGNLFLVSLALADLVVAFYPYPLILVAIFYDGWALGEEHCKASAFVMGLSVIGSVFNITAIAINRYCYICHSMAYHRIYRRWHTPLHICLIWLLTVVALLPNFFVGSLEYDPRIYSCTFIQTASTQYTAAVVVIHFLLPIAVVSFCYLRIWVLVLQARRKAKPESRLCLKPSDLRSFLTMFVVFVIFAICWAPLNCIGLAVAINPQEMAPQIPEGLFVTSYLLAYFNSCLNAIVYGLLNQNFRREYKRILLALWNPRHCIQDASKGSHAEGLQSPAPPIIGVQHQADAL
The assay can be described thus: Binding affinity for human recombinant Melatonin receptor type 2 expressed in NIH3T3 cells. The format is cell-based.

Assay [2] has as its target T2, Melatonin receptor type 1A (Homo sapiens, UniProt P48039). The assay can be described thus: Binding affinity for human recombinant Melatonin receptor type 1 expressed in NIH3T3 cells. The format is cell-based.
Assay [3] deals with T2, Melatonin receptor type 1A.
Assay [4] concerns the target T3, Melatonin receptor type 1B (Homo sapiens) (UniProt P49286).
T3 sequence (whole entry): T1 sequence (P49286 whole entry)

T2 sequence (P48039 whole entry): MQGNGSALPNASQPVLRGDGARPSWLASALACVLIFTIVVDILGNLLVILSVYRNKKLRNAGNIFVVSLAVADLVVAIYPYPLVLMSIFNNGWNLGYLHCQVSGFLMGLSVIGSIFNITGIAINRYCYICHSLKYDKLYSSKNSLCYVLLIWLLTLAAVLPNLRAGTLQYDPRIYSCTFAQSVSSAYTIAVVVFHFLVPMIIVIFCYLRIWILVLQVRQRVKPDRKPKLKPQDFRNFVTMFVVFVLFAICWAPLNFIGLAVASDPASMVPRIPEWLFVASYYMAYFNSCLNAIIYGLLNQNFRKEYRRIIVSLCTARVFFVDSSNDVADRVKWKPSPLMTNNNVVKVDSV

What is called Ki is the dissociation constant of the complex between target and ligand, obtained from inhibition or displacement. With `CC(=O)NCC1Cc2ccccc2Cc2ccccc21` (configuration not stated), the inhibitory constant (Ki) in assay [1] was 0.0302 µM; in assay [2] it was 0.24 µM. The IAr in assay [3] was 0.03; in assay [4] it was -0.32.

For the compound `COc1ccc2c(c1)C(CNC(C)=O)Cc1ccccc1C2` (configuration not stated), the inhibitory constant (Ki) in assay [1] was 0.000661 µM; in assay [2], 0.00617 µM. Moreover, the IAr in assay [3] was -0.18; in assay [4] it was -0.55.

Take `CC(=O)NCCN1c2ccccc2C=Cc2ccccc21`: the Ki was 0.126 µM in assay [1] and 0.112 µM in assay [2]. In addition, the IAr in assay [3] was 0.01; in assay [4], -0.03.

For `COc1ccc2c(c1)C(CNC(C)=O)Cc1ccccc1C2=O` (configuration not stated), the Ki is 0.000891 µM in assay [1] and 0.00302 µM in assay [2]. The IAr is -0.14 in assay [3] and -0.08 in assay [4].

Take `COc1ccc2c(c1)C(CCNC(C)=O)Cc1ccccc1C2` (configuration not stated): the inhibition constant (Ki) in assay [1] was 0.0398 µM; in assay [2], 0.162 µM. The figures for the IAr in assay [3] and in assay [4] were -0.07 and 0.01, respectively.

Consider `CCCC(=O)NCC1Cc2ccccc2Cc2ccc(OC)cc21` (configuration not stated), for which the results for the Ki in assay [1] and in assay [2] were 0.000245 µM and 0.00129 µM, respectively. In addition, the IAr is -0.09 in assay [3] and -0.17 in assay [4].

As to `CCC(=O)NCCN1c2ccccc2C=Cc2ccc(OC)cc21`, the Ki is 0.038 µM in assay [1] and 0.0575 µM in assay [2]. Moreover, the IAr is -0.04 in assay [3] and -0.1 in assay [4].

Regarding `CCC(=O)NCCN1c2ccccc2CCc2ccccc21`, the Ki in assay [1] is 0.2 µM; in assay [2] it was 0.55 µM. For the same compound, the IAr in assay [3] was 0.03; in assay [4] it was 0.13.

For the compound `CC(=O)NCC1=Cc2ccccc2Cc2ccccc21`, the Ki was 0.0851 µM in assay [1] and 0.55 µM in assay [2]. Also, the IAr is 0.02 in assay [3] and -0.09 in assay [4].

For the compound `CCC(=O)NCC1Cc2ccccc2Cc2ccc(OC)cc21` (configuration not stated), the inhibitory constant (Ki) in assay [1] was 0.000162 µM; in assay [2], 0.00135 µM. The IAr in assay [3] is -0.1; in assay [4], -0.15.

Compound `COc1ccc2[nH]cc(CCNC(C)=O)c2c1` registered an IAr in assay [3] of 1.

`CC(=O)NCC(=O)N1c2ccccc2C=Cc2ccccc21`: the Ki was 11 µM in assay [1] and 20.4 µM in assay [2].

Regarding `CC(=O)NCCC1Cc2ccccc2Cc2ccccc21` (configuration not stated), the Ki in assay [1] was 0.0891 µM; in assay [2], 0.389 µM. Moreover, the IAr is 0.21 in assay [3] and 0.69 in assay [4].
